Assay results taken from patent publication US20080103205A1, “Pesticidal compositions and methods of use” (priority 2006, published 2008).
“Also recorded” adds a separate entry of the source.

Key:
[1] = tested on: H. megidis; conditions: concentrations up to 200 ug/ml; cited from earlier work
[2] = tested on: a variety of nematode species, including Caenorhabditis elegans and Meloidogyne incognita; conditions: 100 ppm; cited from earlier work
[3] = tested on: Heterorhabditis bacteriophora; assay: Toxicity test, infective juveniles (J3) of Heterorhabditis bacteriophora; type: in vivo; conditions: 200 ppm, up to 168 hrs of exposure
Description: Toxicity tests were conducted using infective juveniles (J3) of H. bacteriophora collected from infested Galleria mellonella larvae. Test solution (280 ul) was placed in a well of a 96-well plate and 20 ul aqueous solution containing nematodes was added. The nematodes in 20 ul solution ranged from 15 to 21 (n=10). Plates were sealed with Parafilm™ and incubated at room temperature. Similar tests conducted with 0.2% DMSO alone served as controls. Stock solution prepared in DMSO was added to wells to achieve 200 ppm. Nematode mortality was checked at 24, 48, 72, 120, and 168 hr after incubation. Nematodes that were motionless for 30 seconds when observed under stereo microscope were considered dead and included in mortality counts. Each concentration was replicated five times.
This broad cross resistance supports a role for AT blockers in the action of these compounds.

[4] = tested on: voltage-gated chloride channels; conditions: cited from earlier work

CC(C)c1c(O)cc(/C=C/c2ccccc2)cc1O [DST]
sensitivity to DST [1]: completely insensitive | 24 hr lethality [2]: 100%

CCOP(=S)(OCC)Oc1nc(Cl)c(Cl)cc1Cl [chlorpyrifos]
toxicity (FIG. 4) [3]: fully susceptible; also recorded: quite active in killing

Cl[C@H]1[C@H](Cl)[C@@H](Cl)[C@@H](Cl)[C@H](Cl)[C@H]1Cl [lindane]
potency as inhibitor of [35S]TBPS binding, Torpedo membranes versus rat brain [4]: about 4 fold
